Results from patent US9839674B2, “Methods of inducing indolamine 2,3—dioxygenase (IDO)” (IDOGEN AB, priority 2010, dated 2017).

Key:
[1] = test system: allotransplanted Lewis rat pancreatic islets; assay: Rejection of allotransplanted pancreatic islets beneath the kidney capsule (blood glucose follow up); assay type: in vivo; details: Fischer 344 rats, 225 mg/kg intraperitoneal daily for 14 days starting 6-8 days after transplantation, FIG. 16
Protocol: Pancreatic islets were isolated from the pancreas of Lewis rats by established technique. After culture at 37° C. over night, 500-1200 islets were implanted beneath the kidney capsule of adult (11-14 weeks old) Fischer 344 rats that were confirmed hyperglucemic (blood glucose >20 mMol/L) after having received a single dose of 35-40 mg/kg intraperitoneally of Streptozotocine, which is selectively toxic to the insulin producing beta cells present in the pancreatic islets. […] The two exceptional rats that maintained a normal blood sugar were subjected to nephrectomy 40 and 43 days after transplantation to check whether their normal blood glucose was a result of unexpected sustained survival of the grafted islets (in which case their blood sugar should promptly increase upon removal of the graft) or was due to a recovery of some Streptozotocine-damaged pancreatic islets (in which case their blood sugar should stay normal despite removal of the graft). […] Twenty two days after transplantation only 1/10 of the zebularine treated rats had rejected the graft as indicated by a normal blood sugar in all but this single rat at completion of the treatment 20-22 days after transplantation and in all of 7 analyzed >1 week after the zebularine treatment was stopped (FIG. 16).

[2] = test system: IDO1 expression in THP-1 cells; assay: IDO1 expression in THP-1 cells by PCR / quantitative real-time PCR; assay type: cell-based, human; details: for IDO1 expression (relative value): zebularine 100 uM, interferon gamma 200 IU/ml, alone or both together, FIG. 1
Protocol: (§1) THP-1 (ATCC: TIB-202) is a human monocytic cell line that originates from an acute monocytic leukemia. It has the phenotype of monocytes but can be differentiated to a more dendritic phenotype. In the current study, the THP-1 cells were in vitro passaged in RPMI 1640 medium supplemented with 5% or 10% FCS, 10 mM Hepes, 1 mM Sodium pyruvate, and 50 ug/ml gentamicin (R5 or R10 medium respectively). The cell density was adjusted to 200 000 cells per ml, and the cultures were incubated for four to seven days at 37° C. with 10% CO2 in a humidified incubator. The substance, or combination of substances, being studied, were added to the medium at specified time points and in the case of IFN-gamma removed from medium as indicated. 96-168 hours after initiation of treatment, the IDO expression was assessed by PCR or by Quantitative PCR (Roche). RNA was extracted from cells cultured in flasks or six-well plates using Trizol reagent according to Invitrogen's protocol. Residual DNA was removed through Rnase free DNase (Roche Applied Science) treatment. Quality and quantity of the isolated RNA was measured by spectrophotometer and gel electrophoresis.
Quantitative real-time PCR analyses (qRT-PCR) were performed using Super-Script III Platinum Two-Step qRT-PCR Kit with SYBR Green (Invitrogen). A total of 100-500 ng total RNA was used in a 20 ul RT reaction using a mixture of polydT and random hexamer primers. The cDNA obtained was diluted to a total volume of 80 ul and stored at −20° C. The primer sequences for the different genes were designed using Gene Fisher software support (G. Giegerich, F. Meyer, C. Schleiermacher, ISMB-96). The primers used for amplification of the IDO gene were: Forward: SEQ ID NO: 5—5′-[…]-3′, Primer sequences, Reverse: SEQ ID NO: 6—TTTCACA-CAGGCGTCATAAGCT-3′.
Hypoxanthine guanine phosphoribosyl transferase (HPRT) HPRT Forward: SEQ ID NO: 7—5′-[…]-3′, HPRT Reverse: SEQ ID NO: 8—5′-[…]-3′ according to the cDNA sequence, were used. The qRT-PCR was performed in 20 ul reaction consisting of 2 ul diluted cDNA (12.5 ng), 0.3 uM of each primer, 1 ul bovine serum albumin (50 ug/ml), and 10 ul Platinum SYBR Green qRT-PCR superMix-UDG. The amplification of IDO was carried out in a Light Cycler (Roche Molecular Biochemicals) with the following thermal profile: Platinum SYBR Green qRT-PCR superMix-UDG incubation at 50° C. for 2 min, then denaturing at 95° C. for 5 min, followed by 45 cycles at 94° C. for 2 s, 58° C. for 10 s, and 72° C. for 14 s. The amplification of HPRT was carried out as follows, UDG incubation at 50° C. for 2 min, denaturing at 95° C. for 5 min, followed by 45 cycles at 94° C. for 2 s, 55° C. for 10 s, and 72° C. for 14 s. After amplification a melting curve analysis was performed. The qRT-PCR experiments were always run in triplicate.

[3] = test system: IDO1 expression in THP-1 cells; assay: IDO1 expression in THP-1 cells by reverse transcriptase PCR (bands), kinetics; assay type: cell-based, human
Protocol: as §1
The sequences of forward primers and reverse primers for the human IDO-1 gene analyzed and the house-keeping gene HPRT respectively, were: IDO-1 forward: 5′-[…]-3′, reverse: 5′-C AGAC AAAT AT A TGCGAAGAAC; HPRT Forward: 5′-[…]-3′, HPRT Reverse: 5′-ACTAAGCAGATGGCCAC AGAA-3′. The PCR conditions were set as follows: 1 denaturing cycle at 94° C. for 2 min followed by 40 cycles (for the IDO-1) or 30 cycles (for the HPRT) at 94° C. for 15 s, 53° C. for 30 s, and 72° C. for 30 s with a final extension reaction at 72° C. for 5 min.
Materials and methods used were the same as described in Example 1 above. […] In panel B, the THP-1 cells were given zebularine alone during 5 days and a weak band was detected. […] In panel C the THP-1 cells were exposed to zebularine for 6 days and interferon gamma was given during 24 hours after four days and the cells were harvested after a total of 6 days. […]

[4] = IFN-g 100 iu/ml or IFN-A alone for 24 h (day 4), FIG. 11
[5] = IFN-g 100 iu/ml or interferon A 25 ng/ml alone for 24 h (day 4), FIG. 12

Compound | rats that had rejected the graft twenty two days after transplantation [1] | IDO1 expression (relative value) [2] | IDO1 expression after 168 h of culture [2, 4] | IDO1 expression after 168 h of culture [2, 5] | course of IDO1 induction after the first 24 hours ([2]; interferon gamma 200 IU/ml initial 24 h, alone or with zebularine 100 uM for the entire period, harvest 48-96 h, FIG. 5) | IDO1 expression after 10, 12 or 14 days of culture ([2]; interferon gamma 200 iu/ml alone for 24 h on day 4, FIG. 10) | IDO1 induction after 24 hours ([2]; zebularine 100 uM or interferon gamma 200 IU/ml alone, harvest 24 h, FIG. 5) | IDO1 expression (RT-PCR band), panel B ([3]; zebularine 5 days, interferon gamma after 3 days for 24 h, tested 24 hours after removal, FIG. 6B) | IDO1 expression (RT-PCR band), panel C ([3]; zebularine 6 days, interferon gamma 24 hours after four days, harvest after 6 days, FIG. 6C) | IDO1 expression (RT-PCR band), panel A ([3]; zebularine four days, interferon gamma added after 3 days, 24 hours before harvest, FIG. 6A)
O=c1ncccn1[C@@H]1O[C@H](CO)[C@@H](O)[C@H]1O [zebularine, reference compound] | 1/10 | 9 | – | – | – | – | – | – | – | –
interferon A | – | – | minimal | minimal | – | – | – | – | – | –
interferon gamma: interferon gamma (Sigma), IDO inducer | – | 80 | minimal | minimal | not sustained and dropped rapidly | minimal | strong | weak band | almost no IDO1 induction | strong band
